# Read-outs that look alike come from different tables or passages of the source.
# Columns and labels:
# [1] = Pharmacokinetic study in mice (IV and PO, plasma LC-MS/MS)
# Method: The objective of this study is to investigate the pharmacokinetic properties of the disclosed compounds after tail vein intravenous injection (IV) and oral administration (PO) in female CD1 mice. Plasma was sampleed at 0, 0.083, 0.25, 0.5, 1, 2, 4, 7 and 24 hours post-dosing, and the drug concentrations in plasma at different time points were detected by LC-MS/MS, and the relevant pharmacokinetic parameters were calculated using WinNonlin software.
# Experimental female CD1 mice were purchased from SPF Laboratory Animal Technology Co., Ltd., aged 6-8 weeks with body weights of 20-30 g. The female CD1 mice were housed in a controlled environment (set temperature at 20-25°C and relative humidity at 40-70%). A 12-hour light/12-hour dark cycle was maintained unless interrupted by study-related events.
# Compound solutions are prepared in an ultra-clean workbench and prepared immediately before use, and mixed thoroughly prior to use to ensure formulation homogeneity.
# Vehicle composition: 10% DMSO+90% (20%SBE-β-CD) Table 4. Doses Used in IV Administration
# Vehicle composition: 10% DMSO + 90% (20%SBE-β-CD) Table 5. Doses Used in PO Administration
# Vehicle composition: 0.5% MC + 1% Tween-20 Table 6. Doses Used in PO Administration
# Prior to the experiment, the animals were randomly grouped. The mice were fasted for 12 hours before drug administration, and free feeding was resumed 4 hours after administration.
# All blood samples were transferred into plastic microcentrifuge tubes containing anticoagulant (EDTA-K2), and then centrifuged at 4000 g for 5 minutes at 4°C. The supernatant was transferred into a microcentrifuge tube without anticoagulant, and the plasma was stored in a -75±15°C refrigerator until detection.
# The blood samples were purified by HPLC and analyzed by mass spectrometry to obtain the plasma concentration-time curve of the disclosed compound.
# The pharmacokinetic parameters were estimated by non-compartmental model method (calculated by Phoenix WinNonlin software).
# PSN1 cells = type: in vivo; conditions: for TGI: endpoint (day 31), TGITV; for mice died: 8 mice per group
# Method: • M-NSG mice: SPF grade, female, 6-8 weeks old, weighing 16-20 g, purchased from Shanghai Model Organisms Technology Co., Ltd. • PSN1 cells: purchased from ATCC;
# PSN1 cells were cultured in an incubator at 37°C and 5% CO2 in RPMI-1640 medium containing 10% inactivated fetal bovine serum. Cells were subcultured by passaging into new culture dishes every 2 to 3 days when they reach confluent.
# • 8.2.3.1 PSN1 cells in the logarithmic growth phase were taken and resuspended in PBS. The cell suspension was inoculated subcutaneously into the right flank of M-NSG mice using a 1mL syringe (inoculated cell count: 5E6/mouse + 30%M). The survival status of the mice and the subcutaneous tumor formation were observed every other day. • 8.2.3.2 On the day of grouping, mice were randomly divided into 8 groups with 8 mice in each group based on the average tumor volume (~190 mm^3) and mouse body weight; • 8.2.3.3 The mice were dosed according to the grouping scheme, all by intragastric administration. […]. The hair condition and status of the mice were observed, and the body weight and tumor size were recorded twice a week to calculate TGI%. • 8.2.3.4 Grouping of Test Animals
# When the average tumor volume reached ~ 190 mm^3, mice with moderate individual tumor volume were selected for inclusion in the group. The animals were randomly assigned to experimental groups according to tumor volume and mouse weight, with 8 mice in each group. Administration started one day after grouping.
# TV = 1/2 × a × b2 [formula] wherein: a represents the long diameter of the tumor; b represents the short diameter of the tumor.
# RTV = Vt /Vinitial × 100(%) [formula]
# T/C(%) = (TRTV/CRTV) × 100% [formula]
# TGI = [1−(TVt/TVinitial)/([…])] × 100% [formula]
# wherein, TVt represents the tumor volume of the treatment group at each measurement; TVinitial represents the tumor volume of the treatment group at the time of grouping and administration; CVt represents the tumor volume of the control group at each measurement; CVinitial represents the tumor volume of the control group at the time of grouping and administration.
# Body Weight Change Rate = (BWfinal-BWinitial) / BWinitial × 100% [formula] wherein, BWinitial represents the animal body weight at the time of grouping and administration; BWfinal represents the animal body weight at each measurement.
# The original data of measurement and observation must be recorded. The analysis and processing are based on the original data, and the results are presented as mean and standard error of the mean (Mean ± SEM). T-test is used to analyze the difference in tumor volume between the control group and the treatment group. P < 0.05 indicates statistical significance.
# [2] = 60 mg/kg p.o. QD*6 times, during administration
Structure (SMILES),F ([1]; PO 10 mg/kg vs IV 10 mg/kg) [%],Mouse Mortality Rate (PSN1 cells; 90 mg/kg p.o. QD*6 times) [%],mouse death (PSN1 cells; 90 mg/kg p.o. QD*6 times),TGI (PSN1 cells; 90 mg/kg p.o. QD*6 times) [%],"body weight loss (PSN1 cells; 90 mg/kg p.o. QD*6 times, throughout the period)",F ([1]; PO 5 mg/kg vs IV 2 mg/kg) [%],Mouse Mortality Rate (PSN1 cells; 60 mg/kg p.o. QD*6 times) [%],mice died (PSN1 cells; 60 mg/kg p.o. QD*6 times),body weight loss (PSN1 cells; [2]),TGI (PSN1 cells; 60 mg/kg p.o. QD*6 times) [%]
[2H]C1([2H])CN(c2ccc(OC(F)(F)F)c(Nc3ncc4c(n3)-c3c(c(C(N)=O)nn3CCO)CC4)c2)C([2H])([2H])[C@H]2CCCN21 [CPD04],42.8,0,no mouse death was found,40,no body weight loss was observed,,,,,
"CN1CCN(c2ccc(OC(F)(F)F)c(Nc3ncc4c(n3)-c3c(c(C(N)=O)nn3CCO)CC4)c2)CC1 [NMS-P937, onvansertib, reference compound]",27.1,,,,,20.5,50,half,decreased severely,
[2H]C1([2H])N(C)C([2H])([2H])C([2H])([2H])N(c2ccc(OC(F)(F)F)c(Nc3ncc4c(n3)-c3c(c(C(N)=O)nn3CCO)CC4)c2)C1([2H])[2H] [CPD06],43.1,,,,,,0,No mice died,≤ 15%,53
